According to US5962487A, “Antipicornaviral compounds and methods for their use and preparation” (Agouron Pharmaceuticals, Inc., priority 1997, dated 1999):

Assays:
in vitro = type: cell-based; conditions: human, hi-hela cells
Description: (§1) HI-HeLa cells were infected with HRV-14 (unless otherwise noted) at a multiplicity of infection (m.o.i.) of 0.13 (virus particles/cell) or mock-infected with medium only. Infected or mock-infected cells were resuspended at 8×10^5 cells per mL and incubated with appropriate concentrations of compounds of formulas I and II. Two days later, XTT/PMS was added to test plates, and the amount of formazan produced was quantified spectrophotometrically at 450/650 nm. The EC50 was calculated as the concentration of compound that increased the percentage of formazan production in compound-treated, virus-infected cells to 50% of that produced by compound-free mock-infected cells. The 50% cytotoxic dose (CC50) was calculated as the concentration of compound that decreased the percentage of formazan produced in compound-treated, mock-infected cells to 50% of that produced in compound-free, mock-infected cells. The therapeutic index (TI) was calculated by dividing the CC50 by the EC50.
(§2) All strains of human rhinovims (HRV) for use in this assay were purchased from American Type Culture Collection (ATCC), except for HRV serotype-14, which was produced from the infectious cDNA clone, constructed and supplied to us by Dr. Roland Rueckert at the Institute for Molecular Virology, University of Wisconsin, Madison, Wis. HRV stocks were propagated, and antiviral assays were performed in HI-HeLa (ATCC). Cells were grown in Minimal Essential Medium, available from Life Technologies, with 10% fetal bovine serum.

[1] = molecular target: T1, Rhinovirus 3C protease (RVP) serotype-14 (Human rhinovirus 14, UniProt P03303); assay: Inhibition of Rhinovirus Protease, serotype 14 (FRET assay); type: biochemical; conditions: for Ki / inhibition at 10 µM: RVP serotype-14; for Ki: 10 minute preincubation with 50 nM RVP prior to addition of substrate, read-out: INHIB (Ki); for kinact/KI: read-out: kobs/I; for inhibition at 10 µM: 10 μM compound, 10 minute preincubation with 50 nM RVP, read-out: INHIB (percent inhibition)
T1 construct: Recombinant Rhinovirus 3C proteases from serotypes 14, 16, 2 or 89 were prepared; made in house
Description: (§3) Stock solutions (50 mM, in DMSO) of various compounds were prepared; dilutions were in the same solvent. Recombinant Rhinovirus 3C proteases from serotypes 14, 16, 2 or 89 were prepared by the following standard chromatographic procedures: (1) ion exchange using Q Sepharose Fast Flow from Pharmacia; (2) affinity chromatography using Affi-Gel Blue from Biorad; and (3) sizing using Sephadex G-100 from Pharmacia. Assays contained 2% DMSO, 50 mM tris pH 7.6, 1 mM EDTA, a compound at the indicated concentrations, approximately 1 μM substrate, and 50-100 nM protease. For Ki determinations, the compound and the enzyme were preincubated for 10 minutes at 30° C. prior to addition of the substrate (substrate start). The kobs/I values were obtained from reactions initiated by addition of enzyme rather than substrate. RVP activity is measured in the fluorescence resonance energy transfer assay. The substrate was (N-terminal) DABCYL-(Gly-Arg-Ala-Val-Phe-Gln-Gly-Pro-Val-Gly)-EDANS. In the uncleaved peptide, the EDANS fluorescence was quenched by the proximal DABCYL moiety. When the peptide was cleaved, the quenching was relieved, and activity was measured as an increase in fluorescence signal.
(§4) In the above table, all data is for RVP serotype-14 unless otherwise noted in parentheses. All strains of human rhinovirus (HRV) were purchased from American Type Culture Collection (ATCC), except for serotype 14, which was produced from the infectious cDNA clone constructed and supplied to us by Dr. Roland Rueckert at the Institute for Molecular Virology, University of Wisconsin, Madison, Wis. The column designated INHIB represents the percent inhibition, with the concentration of the compound in μM indicated in parentheses, unless Ki was assigned as designated by (Ki), at 10 minute preincubation with 50 nM RVP prior to addition of substrate was used. The data in the column designated kobs/I was measured from progress curves in enzyme start experiments.

HRV-14 = assay: Antirhinoviral HI-HeLa Cell Culture Assay (cell protection, XTT), HRV-14; type: cell-based, human rhinovirus; conditions: for TI: CC50/EC50, HRV serotype-14, 2880 min; for EC50: Rhinovirus B, HRV14, 48 h, HRV serotype-14 infected HI-HeLa cells, XTT, two days
Description: In the Cell Protection Assay, the ability of compounds to protect cells against HRV infection was measured by the XTT dye reduction method. This method is described in O. S. Weislow, R. Kiser, D. L. Fine, J. Bader, R. H. Shoemaker, and M. R. Boyd, J. Natl. Cancer Inst. 1989, 81, 577-586, which document is entirely incorporated herein by reference.
as §1, §2
The compounds were tested against control compounds WIN 51711, WIN 52084, and WIN 54954, all obtained from Sterling-Winthrop Pharmaceuticals, and control compound Pirodavir, obtained from Janssen Pharmaceuticals. Antiviral data obtained for the test compounds are shown in Table 2 where all data are for HRV serotype-14 unless otherwise noted in parentheses.

[2] = molecular target: T2, Rhinovirus 3C protease (RVP) serotype 16 (Human rhinovirus 16, UniProt Q82122); assay: Inhibition of Rhinovirus Protease, serotype 16 (FRET assay); type: biochemical; conditions: enzyme start experiments, read-out: kobs/I
T2 construct: Recombinant Rhinovirus 3C proteases from serotypes 14, 16, 2 or 89 were prepared; made in house
Description: as §3, §4

[3] = molecular target: T3, Rhinovirus 3C protease (RVP) serotype 2 (Human rhinovirus 2, UniProt P04936); assay: Inhibition of Rhinovirus Protease, serotype 2 (FRET assay); type: biochemical; conditions: enzyme start experiments, read-out: kobs/I
T3 construct: Recombinant Rhinovirus 3C proteases from serotypes 14, 16, 2 or 89 were prepared; made in house
Description: as §3, §4

T1 sequence (P03303 1538-1719): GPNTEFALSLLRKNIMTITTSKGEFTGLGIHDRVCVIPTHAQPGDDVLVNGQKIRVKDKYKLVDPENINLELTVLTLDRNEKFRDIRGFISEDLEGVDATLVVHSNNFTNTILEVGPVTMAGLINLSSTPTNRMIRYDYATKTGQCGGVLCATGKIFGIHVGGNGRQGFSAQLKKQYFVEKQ
T3 sequence (P04936 1508-1690): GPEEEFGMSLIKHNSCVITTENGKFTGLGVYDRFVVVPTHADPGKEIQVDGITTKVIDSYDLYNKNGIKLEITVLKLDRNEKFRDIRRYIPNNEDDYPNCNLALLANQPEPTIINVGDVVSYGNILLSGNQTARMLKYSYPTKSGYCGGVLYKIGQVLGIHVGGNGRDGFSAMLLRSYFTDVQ
T2 sequence (Q82122 1511-1693): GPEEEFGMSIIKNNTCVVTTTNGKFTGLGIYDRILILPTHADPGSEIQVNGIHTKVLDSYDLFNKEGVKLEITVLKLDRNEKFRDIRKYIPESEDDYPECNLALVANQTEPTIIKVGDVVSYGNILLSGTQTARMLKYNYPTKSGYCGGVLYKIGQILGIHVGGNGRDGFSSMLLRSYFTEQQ

CCOC(=O)/C=C/[C@H](CCC(N)=O)NC(=O)[C@H](Cc1ccccc1)N(C)C(=O)[C@H](CC(C)C)NC(=O)SCc1ccccc1 [Compound 15, Ethyl-3-(Benzylthiocarbonyl-L-Leu-L-N-Me-Phe-L-Gln)-E-Propenoate]
CC50 at 48 h (in vitro): 50.1 µM | Ki [1]: 2.5 µM | kinact/KI [1]: 36400 M⁻¹ s⁻¹ | TI (HRV-14): 192 | EC50 (HRV-14): 0.26 µM | kinact/KI [2]: 5600 M⁻¹ s⁻¹ | kinact/KI [3]: 3500 M⁻¹ s⁻¹

CCOC(=O)/C=C/C(CCC(N)=O)NC(=O)[C@H](Cc1ccccc1)N1CC[C@@H](NC(=O)OCc2ccccc2)C1=O (stereo partly drawn) [Compound 55]
CC50 at 48 h (in vitro): > 100 µM | inhibition at 10 µM [1]: 20% | TI (HRV-14): > 2 | EC50 (HRV-14): 50 µM

CCOC(=O)/C(C)=C/[C@H](CCC(N)=O)NC(=O)[C@H](Cc1ccc(C)cc1)N(C)C(=O)[C@@H](NC(=O)SC1CCCC1)C(C)(C)C [Compound 49]
CC50 at 48 h (in vitro): 71 µM | kinact/KI [1]: 1910 M⁻¹ s⁻¹ | TI (HRV-14): 710 | EC50 (HRV-14): 0.1 µM

CCOC(=O)/C=C/[C@H](CCC(N)=O)NC(=O)Cn1c(-c2ccccc2)ncc(NC(=O)OCc2ccccc2)c1=O [Compound 30, Ethyl-3-([(5-CBZ-Amino)-2-Phenyl-6-Oxo-1,6-Dihydro-1-Pyrimidinyl]-L-Gln)-E-Propenoate]
CC50 at 48 h (in vitro): 177 µM | Ki [1]: 55 µM | kinact/KI [1]: 163 M⁻¹ s⁻¹ | TI (HRV-14): 25 | EC50 (HRV-14): 7.2 µM

CCSC(=O)N[C@@H](CC(C)C)C(=O)N(C)[C@@H](Cc1ccccc1)C(=O)N[C@H](/C=C/C(=O)N1CCOC1=O)CCC(N)=O [Compound 17, 1-[2'-Oxazolidon-3'-yl]-3-(Ethylthiocarbonyl-L-Leu-L-N-Me-Phe-L-Gln)-E-Propepone]
CC50 at 48 h (in vitro): 53 µM | kinact/KI [1]: 750000 M⁻¹ s⁻¹ | TI (HRV-14): 106 | EC50 (HRV-14): 0.5 µM

CCSC(=O)N[C@@H](CC(C)C)C(=O)N(C)[C@@H](Cc1ccccc1)C(=O)N[C@H](/C=C/C(=O)N1CCc2ccccc21)CCC(N)=O [Compound 7, 1-(2',3'-Dihydroindolin-1-yl)-3-(Ethylthiocarbonyl-L-Leu-L-N-Me-Phe-L-Gln)-E-Propenone]
CC50 at 48 h (in vitro): 47.9 µM | kinact/KI [1]: 3820 M⁻¹ s⁻¹ | TI (HRV-14): 37 | EC50 (HRV-14): 1.3 µM

CCOC(=O)/C=C/[C@H](CCC(N)=O)NC(=O)[C@H](Cc1ccccc1)N(C)C(=O)OCc1ccccc1 [Compound 1, Ethyl-3-(CBZ-L-N-Me-Phe-L-Gln)-E-Propenoate]
CC50 at 48 h (in vitro): 251 µM | Ki [1]: > 100 µM | kinact/KI [1]: 52 M⁻¹ s⁻¹ | TI (HRV-14): 13 | EC50 (HRV-14): 20 µM

CCOC(=O)/C(C)=C/[C@H](CCC(N)=O)NC(=O)[C@H](Cc1ccccc1)N(C)C(=O)[C@H](CC(C)C)NC(=O)SCC1CCCCC1 [Compound 41]
CC50 at 48 h (in vitro): 18 µM | kinact/KI [1]: 2350 M⁻¹ s⁻¹ | TI (HRV-14): 9 | EC50 (HRV-14): 2 µM

CC(C)C[C@H](NC(=O)SC1CCCC1)C(=O)N(C)[C@@H](Cc1ccccc1)C(=O)N[C@H](/C=C/C(=O)OCc1ccccc1)CCC(N)=O [Compound 56]
CC50 at 48 h (in vitro): 20 µM | kinact/KI [1]: 15400 M⁻¹ s⁻¹ | TI (HRV-14): 13 | EC50 (HRV-14): 1.6 µM

CCOC(=O)/C=C/[C@H](CCC(N)=O)NC(=O)[C@H](Cc1ccccc1)n1ccn(NC(=O)OCc2ccccc2)c1=O [Compound 33, Ethyl-3-(CBZ-amino-L-N-[(1,3-Dihydro-imidazol-2-one)-Phe]-L-Gln)-E-Propenoate]
CC50 at 48 h (in vitro): > 320 µM | inhibition at 10 µM [1]: 86% | kinact/KI [1]: 361 M⁻¹ s⁻¹ | EC50 (HRV-14): > 320 µM

CCOC(=O)/C=C/[C@H](CCC(N)=O)NC(=O)[C@@H]1C[C@@H](OCc2ccccc2)CN1C(=O)[C@H](CC(C)C)NC(=O)OCc1ccccc1 [Compound 20, Ethyl-3-[CBZ-L-Leu-L-(4R-Benzyloxy)-Pro-L-Gln]-E-Propenoate]
CC50 at 48 h (in vitro): 56 µM | Ki [1]: 62 µM | kinact/KI [1]: 3330 M⁻¹ s⁻¹ | TI (HRV-14): 10.3 | EC50 (HRV-14): 5.4 µM

CCSC(=O)N[C@@H](CC(C)C)C(=O)N(C)[C@@H](Cc1ccccc1)C(=O)N[C@H](/C=C1\CCOC1=O)CCC(N)=O [Compound 8, 2-(Ethylthiocarbonyl-L-Leu-L-N-Me-Phe-L-Gln)-E-(α-Vinyl-γ-Butyrolactone)]
CC50 at 48 h (in vitro): > 320 µM | kinact/KI [1]: 6880 M⁻¹ s⁻¹ | TI (HRV-14): > 32 | EC50 (HRV-14): 10 µM

CON(C)C(=O)/C=C/[C@H](CCC(N)=O)NC(=O)[C@@H]1[C@@H](c2ccccc2)CCN1C(=O)[C@H](CC(C)C)NC(=O)OCc1ccccc1 [Compound 22, N-Methoxy, N-Methyl-3-[CBZ-L-Leu L-(3R-Phenyl)-Pro-L-Gln]-E-Propenamide]
CC50 at 48 h (in vitro): > 320 µM | kinact/KI [1]: 100 M⁻¹ s⁻¹ | TI (HRV-14): > 2 | EC50 (HRV-14): 178 µM

CCOC(=O)/C(C)=C/[C@H](CCC(N)=O)NC(=O)[C@H](Cc1ccccc1)N(C)C(=O)[C@H](CC(C)C)NC(=O)SC1CCCCC1 [Compound 43]
CC50 at 48 h (in vitro): 56.2 µM | kinact/KI [1]: 2200 M⁻¹ s⁻¹ | TI (HRV-14): 16 | EC50 (HRV-14): 3.5 µM

CCOC(=O)/C=C/[C@H](CCC(N)=O)NC(=O)[C@H](Cc1ccccc1)N(C)C(=O)[C@H](CC(C)C)NC(=O)SC(C)C [Compound 38]
CC50 at 48 h (in vitro): > 100 µM | kinact/KI [1]: 18200 M⁻¹ s⁻¹ | TI (HRV-14): > 278 | EC50 (HRV-14): 0.36 µM

CCOC(=O)C=CC(CCC(N)=O)NC(=O)C1CC(OC(C)(C)C)CN1C(=O)C(CC(C)C)NC(=O)OCc1ccccc1 (stereo not drawn) [Compound 23]
CC50 at 48 h (in vitro): 224 µM | Ki [1]: 60 µM | kinact/KI [1]: 605 M⁻¹ s⁻¹ | TI (HRV-14): 22 | EC50 (HRV-14): 10 µM

CCOC(=O)/C=C/C(CCC(N)=O)NC(=O)[C@H](Cc1ccccc1)N1CC[C@H](NC(=O)OCc2ccccc2)C1=O (stereo partly drawn) [Compound 53]
CC50 at 48 h (in vitro): > 100 µM | kinact/KI [1]: 242 M⁻¹ s⁻¹ | TI (HRV-14): > 22 | EC50 (HRV-14): 4.5 µM
